Results from patent publication US20250213555A1, “SUBSTITUTED TETRAHYDROFURAN ANALOGS AS MODULATORS OF SODIUM CHANNELS” (VERTEX PHARMACEUTICALS INCORPORATED, priority 2021, published 2025).

Target: human Nav 1.8 (Homo sapiens, UniProt Q9Y5Y9)
Test: E-VIPR assay detecting and measuring Nav inhibition properties
Assay type: cell-based
Conditions: HEK cells expressing a truncated form of human Nav 1.8; compound numbers without "*" (not marked as run in the presence of human serum); read-out: measured IC50 value in the E-VIPR Assay
Source text: E-VIPR Assay Detecting and Measuring Nav Inhibition Properties
Sodium ion channels are voltage-dependent proteins that can be activated by inducing membrane voltage changes by applying electric fields. The electrical stimulation instrument and methods of use, referred to as E-VIPR, are described in International Publication No. WO 2002/008748 A3 and C.-J. Huang et al. Characterization of voltage-gated sodium channel blockers by electrical stimulation and fluorescence detection of membrane potential, 24 Nature Biotech. 439-46 (2006), both of which are incorporated by reference in their entirety. The instrument comprises a microtiter plate handler, an optical system for exciting the coumarin dye while simultaneously recording the coumarin and oxonol emissions, a waveform generator, a current- or voltage-controlled amplifier, and parallel electrode pairs that are inserted into assay plate wells. Under integrated computer control, this instrument passes user-programmed electrical stimulus protocols to cells within the wells of the microtiter plate.
16-20 hours prior to running the assay on E-VIPR, HEK cells expressing a truncated form of human Nav 1.8 with full channel activity were seeded into microtiter 384-well plates, pre-coated with matrigel, at a density of 25,000 cells per well. 2.5-5% KIR2.1 Bacmam virus was added to the final cell suspension before seeding into cell plates. HEK cells were grown in Dulbecco's Modified Eagle's Medium (DMEM) supplemented with 10% FBS (Fetal Bovine Serum, qualified; Sigma #F4135), 1% NEAA (Non-Essential Amino Acids, Gibco #11140), 1% HEPES (Gibco #15630), 1% Pen-Strep (Penicillin-Streptomycin; Gibco #15140) and 5 μg/ml Blasticidin (Gibco #R^210-01). Cells were expanded in vented cap cell culture flasks, with 90-95% humidity and 5% CO2.
100 mg/mL Pluronic F-127 (Sigma #P2443), in dry DMSO
Compound Plates: Corning 384-well Polypropylene Round Bottom #3656
Cell Plates: 384-well tissue culture treated plates (Greiner #781091-2B)
2.5-5% KIR 2.1 Bacmam virus (produced in-house), prepared as described in Section 3.3 of J. A. Fornwald et al., Gene Expression in Mammalian Cells Using BacMam, a Modified Baculovirus System, 1350 Methods in Molecular Biology 95-116 (2016), the entire contents of which are incorporated by reference. The concentration used can be dependent on viral titer of each batch.
5 mM DiSBAC6(3), a voltage sensitive oxonol acceptor (CAS number 169211-44-3; 5-[3-(1,3-dihexylhexahydro-4,6-dioxo-2-thioxo-5-pyrimidinyl)-2-propen-1-ylidene]-1,3-dihexyldihydro-2-thioxo-4,6 (1H,5H)-pyrimidinedione), in dry DMSO. The preparation of DiSBAC6(3) is analogous to that of DiSBAC4(3) as described in Voltage Sensing by Fluorescence Resonance Energy Transfer in Single Cells, Gonzalez, J. E. and Tsien, R. Y. (1995) Biophys. J. 69, 1272-1280.
5 mM CC2-DMPE, a commercially available membrane-bound coumarin phospholipid FRET donor (ThermoFisher Scientific catalog number K1017, CAS number 393782-57-5; tetradecanoic acid, 1,1′-[(1R)-1-[8-(6-chloro-7-hydroxy-2-oxo-2H-1-benzopyran-3-yl)-3-hydroxy-3-oxido-8-oxo-2,4-dioxa-7-aza-3-phosphaoct-1-yl]-1,2-ethanediyl] ester) was prepared in dry DMSO. See also, Improved indicators of cell membrane potential that use fluorescence resonance energy transfer, Gonzalez, J. E. and Tsien, R. Y. (1997) Chem. Biol. 4, 269-277.
Voltage Assay Background Suppression Compound (VABSC-1) is prepared in H2O (89-363 mM, range used to maintain solubility)
Human Serum (HS, Millipore #S1P1-01KL, or Sigma SLBR5469V and SLBR5470V as a 50%/50% mixture, for 25% assay final concentration)
• Sodium Chloride 160 mM (9.35 g/L), Potassium Chloride, 4.5 mM (0.335 g/L), Glucose 10 mM (1.8 g/L), Magnesium Chloride (Anhydrous) 1 mM (0.095 g/L), Calcium Chloride 2 mM (0.222 g/L), HEPES 10 mM (2.38 g/L) in water. […]

human Nav 1.8, sequence (Q9Y5Y9 126-399 limits assumed): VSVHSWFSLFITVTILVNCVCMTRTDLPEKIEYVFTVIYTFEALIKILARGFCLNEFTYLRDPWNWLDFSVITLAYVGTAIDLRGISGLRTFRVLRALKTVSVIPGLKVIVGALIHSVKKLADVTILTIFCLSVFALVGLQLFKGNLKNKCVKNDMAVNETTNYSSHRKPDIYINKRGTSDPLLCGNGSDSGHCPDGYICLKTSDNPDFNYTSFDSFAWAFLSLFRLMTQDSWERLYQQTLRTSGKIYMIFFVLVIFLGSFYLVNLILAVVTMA
human Nav 1.8, sequence (Q9Y5Y9 660-890 limits assumed): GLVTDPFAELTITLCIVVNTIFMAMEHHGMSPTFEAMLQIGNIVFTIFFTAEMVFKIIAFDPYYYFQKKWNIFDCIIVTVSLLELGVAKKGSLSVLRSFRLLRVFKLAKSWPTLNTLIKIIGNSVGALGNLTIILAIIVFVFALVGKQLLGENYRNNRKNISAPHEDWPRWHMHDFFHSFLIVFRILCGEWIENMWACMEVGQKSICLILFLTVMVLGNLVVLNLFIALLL
human Nav 1.8, sequence (Q9Y5Y9 1148-1722 limits assumed): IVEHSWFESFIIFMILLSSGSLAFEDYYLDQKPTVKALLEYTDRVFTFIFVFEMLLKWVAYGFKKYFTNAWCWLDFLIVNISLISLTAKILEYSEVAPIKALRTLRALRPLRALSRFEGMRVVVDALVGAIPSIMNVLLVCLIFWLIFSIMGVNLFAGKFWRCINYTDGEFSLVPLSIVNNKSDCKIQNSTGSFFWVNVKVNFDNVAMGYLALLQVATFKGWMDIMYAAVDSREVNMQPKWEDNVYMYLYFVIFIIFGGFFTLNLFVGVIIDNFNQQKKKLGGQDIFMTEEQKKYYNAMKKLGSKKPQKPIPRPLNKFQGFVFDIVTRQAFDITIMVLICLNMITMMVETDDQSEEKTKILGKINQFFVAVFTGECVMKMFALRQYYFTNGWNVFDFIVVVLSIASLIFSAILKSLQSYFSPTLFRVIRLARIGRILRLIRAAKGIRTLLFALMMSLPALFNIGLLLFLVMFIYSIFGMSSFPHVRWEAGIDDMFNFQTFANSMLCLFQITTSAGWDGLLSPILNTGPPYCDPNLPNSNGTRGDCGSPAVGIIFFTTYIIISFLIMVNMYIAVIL

Row | SMILES | IC50 [nM]
1 | C[C@H]1[C@@H](c2ccc(F)c(F)c2O[C@@H]2CCN(C)C2)[C@H](C(=O)Nc2ccnc(C(N)=O)c2)O[C@@]1(C)C(F)(F)F (single isomer, unassigned) [Compound 102, rel-4-((2R*,3S*,4S*,5R*)-3-(3,4-difluoro-2-((-1-methylpyrrolidin-3-yl)oxy)phenyl)-4,5-dimethyl-5-(trifluoromethyl)tetrahydrofuran-2-carboxamido)picolinamide] | 10 to 100
2 | COc1c([C@@H]2[C@@H](C(=O)Nc3ccnc(C(N)=O)c3)O[C@](C)(C(F)(F)F)[C@@H]2C)ccc(F)c1CO (single isomer, unassigned) [Compound 137] | ≥ 1000
3 | COCc1c(F)ccc([C@@H]2[C@@H](C(=O)Nc3ccnc(C(N)=O)c3)O[C@](C)(C(F)(F)F)[C@@H]2C)c1OC (single isomer, unassigned) [Compound 139] | ≥ 1000
4 | COCc1c(F)ccc([C@H]2[C@H](C(=O)Nc3ccnc(C(N)=O)c3)O[C@@](C)(C(F)(F)F)[C@H]2C)c1OC (single isomer, unassigned) [Compound 140] | < 10
5 | COc1c([C@@H]2[C@@H](C(=O)Nc3ccnc(C(N)=O)c3)O[C@](C)(C(F)(F)F)[C@@H]2C)ccc(OCC2CC2)c1F (single isomer, unassigned) [Compound 141] | 100 to 1000
6 | COc1c([C@@H]2[C@@H](C)[C@@](C)(C(F)(F)F)O[C@H]2C(=O)Nc2ccnc(C(N)=O)c2)ccc(OCC2CC2)c1F (single isomer, unassigned) [Compound 142] | ≥ 1000
7 | COc1c([C@@H]2[C@@H](C(=O)Nc3ccnc(C(N)=O)c3)O[C@@](C)(C(F)(F)F)[C@H]2C)ccc(OCC2CC2)c1F (single isomer, unassigned) [Compound 143] | 100 to 1000
8 | COc1c([C@H]2[C@H](C(=O)Nc3ccnc(C(N)=O)c3)O[C@@](C)(C(F)(F)F)[C@H]2C)ccc(OCC2CC2)c1F (single isomer, unassigned) [Compound 144] | < 10
9 | COCc1c([C@@H]2[C@@H](C(=O)Nc3ccnc(C(N)=O)c3)O[C@](C)(C(F)(F)F)[C@@H]2C)ccc(F)c1F (single isomer, unassigned) [Compound 146] | ≥ 1000
10 | COCc1c([C@H]2[C@H](C(=O)Nc3ccnc(C(N)=O)c3)O[C@@](C)(C(F)(F)F)[C@H]2C)ccc(F)c1F (single isomer, unassigned) [Compound 147] | < 10
11 | C[C@@H]1[C@H](c2ccc(F)c3c2CCC3(F)F)[C@@H](C(=O)Nc2ccnc(C(N)=O)c2)O[C@]1(C)C(F)(F)F (single isomer, unassigned) [Compound 148] | ≥ 1000
12 | C[C@H]1[C@@H](c2ccc(F)c3c2CCC3(F)F)[C@H](C(=O)Nc2ccnc(C(N)=O)c2)O[C@@]1(C)C(F)(F)F (single isomer, unassigned) [Compound 149] | < 10
13 | CO[C@H](CO)COc1c([C@H]2[C@H](C(=O)Nc3ccnc(C(N)=O)c3)O[C@@](C)(C(F)(F)F)[C@H]2C)ccc(F)c1F (single isomer, unassigned) [Compound 160, rel-4-((2R*,3S*,4S*,5R*)-3-(3,4-difluoro-2-(3-hydroxy-2-methoxypropoxy)phenyl)-4,5-dimethyl-5-(trifluoromethyl)tetrahydrofuran-2-carboxamido)picolinamide] | < 10
14 | CO[C@H](CO)COc1c([C@H]2[C@H](C(=O)Nc3ccnc(C(N)=O)c3)O[C@@](C)(C(F)(F)F)[C@H]2C)ccc(F)c1F (single isomer, unassigned) [Compound 161, rel-4-((2R*,3S*,4S*,5R*)-3-(3,4-difluoro-2-(3-hydroxy-2-methoxypropoxy)phenyl)-4,5-dimethyl-5-(trifluoromethyl)tetrahydrofuran-2-carboxamido)picolinamide] | 10 to 100
15 | CC=C(CO)COc1c([C@H]2[C@H](C(=O)Nc3ccnc(C(N)=O)c3)O[C@@](C)(C(F)(F)F)[C@H]2C)ccc(F)c1F (single isomer, unassigned) [Compound 164, rel-4-((2R*,3S*,4S*,5R*)-3-(3,4-difluoro-2-((2-(hydroxymethyl)but-2-en-1-yl)oxy)phenyl)-4,5-dimethyl-5-(trifluoromethyl)tetrahydrofuran-2-carboxamido)picolinamide] | < 10
16 | C[C@H]1[C@@H](c2ccc(F)c(F)c2OCC(=NO)C2CC2)[C@H](C(=O)Nc2ccnc(C(N)=O)c2)O[C@@]1(C)C(F)(F)F (single isomer, unassigned) [Compound 183, rel-4-((2R*,3S*,4S*,5R*)-3-(2-(2-cyclopropyl-2-(hydroxyimino)ethoxy)-3,4-difluorophenyl)-4,5-dimethyl-5-(trifluoromethyl)tetrahydrofuran-2-carboxamido) picolinamide] | < 10
17 | CC(C)C(COc1c([C@H]2[C@H](C(=O)Nc3ccnc(C(N)=O)c3)O[C@@](C)(C(F)(F)F)[C@H]2C)ccc(F)c1F)=NO (single isomer, unassigned) [Compound 187, rel-4-((2R*,3S*,4S*,5R*)-3-(3,4-difluoro-2-(2-(hydroxyimino)-3-methylbutoxy)phenyl)-4,5-dimethyl-5-(trifluoromethyl)tetrahydrofuran-2-carboxamido)picolinamide] | < 10
18 | CON=C(C)COc1c([C@H]2[C@H](C(=O)Nc3ccnc(C(N)=O)c3)O[C@@](C)(C(F)(F)F)[C@H]2C)ccc(F)c1F (single isomer, unassigned) [Compound 194, rel-4-((2R*,3S*,4S*,5R*)-3-(3,4-difluoro-2-(2-(methoxyimino)propoxy)phenyl)-4,5-dimethyl-5-(trifluoromethyl)tetrahydrofuran-2-carboxamido)picolinamide] | < 10
19 | CC1C(c2ccc(F)c(F)c2OCC2CC(O)C2)C(C(=O)Nc2cccc(C(N)=O)c2)OC1(C)C(F)(F)F (single isomer, unassigned) [Compound 197, rel-(2R*,3S*,4S*,5R*)-N-(3-carbamoylphenyl)-3-(3,4-difluoro-2-(((1r,3S)-3-hydroxycyclobutyl)methoxy)phenyl)-4,5-dimethyl-5-(trifluoromethyl)tetrahydrofuran-2-carboxamide] | < 10
20 | CC1C(c2ccc(F)c(F)c2OCC2CC(C)(O)C2)C(C(=O)Nc2ccnc(C(N)=O)c2)OC1(C)C(F)(F)F (single isomer, unassigned) [Compound 200, rel-4-((2R*,3S*,4S*,5R*)-3-(3,4-difluoro-2-(((1s,3R)-3-hydroxy-3-methylcyclobutyl)methoxy)phenyl)-4,5-dimethyl-5-(trifluoromethyl)tetrahydrofuran-2-carboxamido)picolinamide] | 10 to 100
21 | CCOc1ccc([C@@H]2[C@@H](C(=O)Nc3ccnc(C(N)=O)c3)O[C@](C)(C(F)(F)F)[C@@H]2C)c2c1OC(F)(F)O2 (single isomer, unassigned) [Compound 209] | ≥ 1000
22 | CNC1CCN(C(=O)c2cc(NC(=O)[C@@H]3O[C@@](C)(C(F)(F)F)[C@@H](C)[C@H]3c3ccc(F)c(F)c3OC)ccn2)C1 (single isomer, unassigned) [Compound 222, rel-(2R*,3S*,4S*,5R*)-3-(3,4-difluoro-2-methoxyphenyl)-4,5-dimethyl-N-(2-(3-(methylamino)pyrrolidine-1-carbonyl)pyridin-4-yl)-5-(trifluoromethyl)tetrahydrofuran-2-carboxamide] | < 10
